In patent US10732172B1, “Methods, systems, and compositions for determining blood clot formation, and uses thereof” (President and Fellows of Harvard College, priority 2015, dated 2020):
“Also recorded” adds a separate entry of the source.

Legend:
Type in all cases: cell-based, human
platelets [1] = experiment: Platelet coverage on TNF-α pretreated, fixed (chemopreserved) endothelium in microfluidic device, whole blood perfusion
Procedure: (§1) By way of example, a microfluidic device is fabricated using photolithography followed by soft lithography with polydimethysiloxane (“PDMS”). According to this example, six microfluidic devices are placed on a single PDMS mold of the size of a standard glass slide, e.g., 75×25 millimeters (“mm”). The microfluidic devices are first exposed to oxygen plasma for 30 seconds using, for example, a PE-100 benchtop plasma system from Plasma Etch. Then, the microfluidic devices are treated with 1% (3-aminopropyl)-trimethoxysilane (“APTMS”), from Sigma, in 100% anhydrous ethanol for ten minutes. After subsequent rinsing with 70% and 100% ethanol, the microfluidic devices are dried and type I collagen from rat tail, e.g., 100 micrograms/milliliter (“μg/ml) from Corning, is introduced in microchannels of the microfluidic devices.
The microfluidic devices are left overnight at 37° C. in a 5% carbon dioxide (“CO2”) incubator, after which they are rinsed with Endothelial Growth Medium-2 (“EGM-2”) from Lonza. Human Umbilical Vein Endothelial Cells (“HUVEC”) from a mixed donor, by Lonza, are kept in culture and suspended at 12.5 million cells/milliliter (“mL”) in EGM-2, after confluence. The suspension is introduced into the collagen-coated microchannels, after which the microfluidic devices are incubated upside down for 20 minutes. A fresh HUVEC suspension is then introduced in the microchannels, after which the microfluidic devices are incubated for eight hours to promote cell attachment across the channel. The microchannels are, then, rinsed with EGM-2, sometimes containing a freshly prepared solution of tumor necrosis factor (“TNF-α”), which is a recombinant from E. coli from Sigma. […]
(§2) Platelets are visualized using time-lapse fluorescence imaging (e.g., 20×, NA 0.4). A time series of a 10-frame panorama (e.g., 6 mm long×0.665 mm wide region of a microchannel), at a lapse of every 30 seconds is recorded. […]

platelets [2] = experiment: Light transmission aggregometry (LTA) with ADP or collagen as agonist; settings: blood treated ex vivo with abciximab, all doses; ADP 10 μM or collagen 2 μg/mL
Procedure: The LTA is performed in accordance with manufacturer instructions. For example, the LTA uses adenosine diphosphate (“ADP”) 10 μM and collagen 2 μg/mL from Chrono-Log.
Blood from healthy donors was treated ex vivo with abciximab or used untreated. These samples as well as clinical blood samples from subjects were centrifuged at 290 g for 10 min (no brake applied) to collect platelet rich plasma (PRP). To obtain a reference solution for each sample, PRP was centrifuged at high speed to pellet platelets (1,000 g, 10 min) and collect platelet poor plasma (PPP). CaCl2 was added to each sample at a final concentration of 1 mM to recalcify plasma before each run. Cifuni et al. “CalDAG-GEFI and protein kinase C represent alternative pathways leading to activation of integrin alphaIIbeta3 in platelets.” Blood 112, 1696-1703 (2008). LTA has then been performed at 37° C. under magnetic stirring using a Chrono-Log Corporation instrument.

platelets [3] = experiment: Platelet coverage in collagen-coated microfluidic device, whole blood perfusion; settings: blood with different doses of abciximab; shear 750 sec^-1
Procedure: as §1
500 microliters (“μL”) of whole blood are pipetted into a fluid reservoir fitted to one end of a microchannel. Platelets are labeled with human CD41-PE antibody (e.g., 10 μL/mL from Invitrogen) that is directly added to the blood samples and incubated at room temperature for 10 minutes. […]
as §2

Substance: abciximab
- abciximab concentration at which optimal effects on platelet adhesion are observed (platelets [1]; fixed endothelium pretreated with TNF-α 5 ng/mL): ≥ 10 µg/mL
- difference in platelet inhibition between 10 μg/ml and 100 μg/ml (platelets [1]; fixed endothelium pretreated with TNF-α 5 ng/ml): insignificant
- platelet coverage (platelet adhesion) on fixed endothelium (platelets [1]; healthy donor whole blood with abciximab 0-100 μg/mL, endothelium pretreated with TNF-α 5 ng/mL then fixed, shear 750 s^-1): decreases with increase in abciximab drug concentration; also recorded: dose-dependent inhibition of platelet adhesion; also recorded: significant dose-dependent platelet inhibition
- platelet aggregation by light transmission aggregometry (platelets [2]): no aggregation is observed; also recorded: virtually complete inhibition of platelet aggregation; also recorded: no platelet aggregability
- platelet coverage on collagen-coated microfluidic device (platelets [3]): insignificant decrease in platelet adhesion and aggregation; also recorded: small suppressive effect on platelet adhesion; also recorded: poor sensitivity
